Laboratory results published in a melting point compilation (Tetko et al.; mined from patent text by program, amines drawn as free bases though some values may be those of a salt).

Q: With CC(=O)OCC1OC(OC2C(COC(C)=O)OC(Oc3ccc([N+](=O)[O-])cc3)C(OC(C)=O)C2OC(C)=O)C(OC(C)=O)C(OC(C)=O)C1OC(C)=O (stereo not drawn) as the compound, how does the melting point read?
A: Its melting point is 165 to 170 °C.

Q: With CN(CCN)C(=O)N1N=C2c3cc(F)ccc3OC[C@@H]2[C@@H]1c1ccccc1 (racemic) as the compound, how does the melting point read?
A: The melting point was 113 °C.

Q: For CCOC(=O)N1CCN(C(=O)Cn2sc3ccccc3c2=O)CC1, which melting point is on record?
A: Its melting point is 158 to 160 °C.

Q: Which melting point does the source give for Cc1c(N)cccc1-c1cn(C)c(=O)c(Nc2ccc(C(=O)N3CCOCC3)cc2)n1 here?
A: The melting point was 274 to 275 °C.

Q: Which melting point does the source give for COc1cc2cnnc(N3CCC(CCN(C)C(=O)Nc4cccnc4)CC3)c2cc1OC here?
A: The melting point was 200 to 204 °C.

Q: Which melting point does the source give for COc1ccc(Cl)c(S(=O)(=O)NC(=O)c2nc3c(Cl)cc(C(F)(F)F)cn3c2C)c1 here?
A: Its melting point is 222 to 223 °C.

Q: For CC(C)(C)NS(=O)(=O)c1c(C(F)F)nsc1OCC(F)(F)F, which melting point is on record?
A: The melting point was 105 to 106 °C.

Q: With CCCCOC(=O)[C@H]1CN(c2ccc3c(c2)oc(=O)n3C(C)C)C(=O)O1 as the compound, how does the melting point read?
A: Its melting point is 86 to 89 °C.

Q: Which melting point does the source give for CCOC(=O)c1cnccc1CCCOc1cccnc1Oc1cccc(Cl)c1 here?
A: Its melting point is 140 to 164 °C.

Q: Which melting point does the source give for O=C1CN=C(C2CCCCC2)c2cc(Cl)ccc2N1 here?
A: The melting point was 210 °C.

Q: With COc1ccc(N(CCCC(=O)O)C(=O)CCN(C(=O)c2ccc(Cl)cc2)c2ccc(OC)cc2)cc1 as the compound, how does the melting point read?
A: Its melting point is 91 to 93 °C.

Q: With CCCc1nc2c(N)nc3ccccc3c2n1CCCCN(O)C(=O)NC(C)C as the compound, how does the melting point read?
A: Its melting point is 158 to 160 °C.

Q: With CCOc1nn(-c2ccc(C(F)(F)F)cn2)cc1CCCOc1cc(CC(=O)O)ccc1OC as the compound, how does the melting point read?
A: The melting point was 142 to 143 °C.

Q: For CCc1nn2c(I)cccc2c1N(CC)CCF, which melting point is on record?
A: The melting point was 51.2 to 53.6 °C.

Q: With Cn1nc(Cl)cc(Nc2ccccn2)c1=O as the compound, how does the melting point read?
A: The melting point was 201 to 202 °C.

Q: With O=C1C=C(c2c[nH]c3ccc(OCc4ccccc4)cc23)C(=O)N1 as the compound, how does the melting point read?
A: The melting point was 211 °C.

Q: Which melting point does the source give for Oc1ccc(Nc2ccncc2)cc1 here?
A: Its melting point is 246 to 248 °C.

Q: With COc1ccc(-c2cc3ccccc3[nH]2)cc1O as the compound, how does the melting point read?
A: Its melting point is 217 °C.

Q: For Cc1cc(NC(=O)NC2=C(c3ccccc3)c3ccccc3CS2)cc(C)c1O, which melting point is on record?
A: The melting point was 227 to 228 °C.

Q: For Cc1c(S(=O)(=O)c2ccc(=O)[nH]n2)oc2ccccc12, which melting point is on record?
A: Its melting point is 182 to 183 °C.

Q: For NS(=O)(=O)c1ccc(NC(=O)c2ccccc2S)cc1, which melting point is on record?
A: Its melting point is 230 to 231 °C.

Q: Which melting point does the source give for CC1CN(Cc2ccccc2)CCC12CC(c1ccccc1)=NO2 (stereo not drawn) here?
A: Its melting point is 101 to 108 °C.

Q: Which melting point does the source give for CCC1(Br)Cc2cc(OCC(=O)O)c(Cl)c(Cl)c2C1=O (stereo not drawn) here?
A: Its melting point is 189 to 191 °C.

Q: Which melting point does the source give for CC(=O)CC(=O)Nc1nc2ccc(NC(C)=O)cc2s1 here?
A: Its melting point is 248 to 250 °C.

Q: For CCCC1(S(=O)(=O)CCCN2CCN(C)CC2)C(=O)N(S(=O)(=O)c2ccc3ccccc3c2)C2CCNC21 (stereo not drawn), which melting point is on record?
A: Its melting point is 186 to 187 °C.

Q: Which melting point does the source give for O=C1c2ccc(O)cc2CCC1Cc1ccccc1 (stereo not drawn) here?
A: Its melting point is 160 to 162 °C.

Q: Which melting point does the source give for CCCCCc1cc(O)c2c(c1)OC(C)(C)CC2C1=CCN(Cc2ccc3ccccc3c2)CC1 (stereo not drawn) here?
A: The melting point was 49 to 51.5 °C.

Q: Which melting point does the source give for CCCCc1oc2ccccc2c1C(=O)NCc1ccc2c(-c3ccc(C(C)(C)C)cc3)c(OCC#N)ccc2c1 here?
A: Its melting point is 162 to 164 °C.

Q: Which melting point does the source give for CCN(CC)C(=S)Oc1cc(Br)cc(Br)c1 here?
A: The melting point was 72 to 74 °C.

Q: Which melting point does the source give for O=C(c1ccc(C(F)(F)F)cc1)N1CCC(=Cc2ccc(C3=NCCO3)cc2)CC1 here?
A: Its melting point is 142 °C.

Q: Which melting point does the source give for CCCCCc1c(C(C)C)nc(C(C)C)c(CO)c1-c1ccccc1C here?
A: Its melting point is 81 to 83 °C.

Q: Which melting point does the source give for NS(=O)(=O)Oc1cc(Cl)cc(Cl)c1 here?
A: Its melting point is 146 to 147 °C.

Q: For Cc1ccnc(C(=O)c2[nH]c3cc(F)ccc3c2CC(=O)O)c1, which melting point is on record?
A: Its melting point is 208 °C.

Q: For O=C(O)C(=O)c1ccc(CCCNC(=O)c2ccc3ccccc3c2)cc1, which melting point is on record?
A: Its melting point is 126 to 128 °C.

Q: Which melting point does the source give for Clc1ncnc2c1ncn2-n1cccc1 here?
A: The melting point was 204 to 206 °C.

Q: With Cc1oc(-c2ccccc2)nc1CCOc1ccc(S(=O)(=O)Nc2cc(Cl)ccc2C(=O)O)cc1 as the compound, how does the melting point read?
A: Its melting point is 223 to 225 °C.

Q: With COc1cccc([C@H]2O[C@H](CC(=O)Nc3ncc(CCC(=O)O)s3)C(=O)N(CC(C)(C)CO)c3ccc(Cl)cc32)c1OC as the compound, how does the melting point read?
A: The melting point was 203 to 205 °C.

Q: For O=C(N[C@H](Cc1ccc(C(F)(F)F)cc1)[C@@H](O)c1cccc(Oc2ccccc2)c1)c1ccc(F)c2ccccc12 (racemic), which melting point is on record?
A: Its melting point is 184 to 185 °C.

Q: With Oc1cc(OCC(O)COc2ccccc2)ccc1C(=S)c1ccc(-c2ccccc2)cc1 (stereo not drawn) as the compound, how does the melting point read?
A: Its melting point is 101 to 102 °C.

Q: With CC(=O)OCC1SC(N2CCc3ccccc32)C(OC(C)=O)C(OC(C)=O)C1OC(C)=O (stereo not drawn) as the compound, how does the melting point read?
A: The melting point was 163 to 165 °C.

Q: Which melting point does the source give for CCn1c(N)c(C(N)=O)c(=O)c2cnc(Nc3ccc(C(=O)N4CCN(C)CC4)cc3)nc21 here?
A: Its melting point is 281 °C.

Q: With C=C(C)C(=O)Oc1c(C(C)c2cc(C(C)(C)CC)cc(C(C)(C)CC)c2O)cc(C(C)(C)CC)cc1C(C)(C)CC (stereo not drawn) as the compound, how does the melting point read?
A: The melting point was 103 to 105 °C.

Q: Which melting point does the source give for CSC(=S)N1CCN(Cc2ccccc2N)CC1 here?
A: Its melting point is 110 to 114 °C.

Q: For O=C(Nc1ccc2c(c1)OCO2)c1ccccc1, which melting point is on record?
A: The melting point was 110 to 112 °C.

Q: Which melting point does the source give for Cc1ccccc1C(=O)Nc1nc(-c2ccccc2)c(-c2ccc(=O)n(C(C)C)n2)s1 here?
A: Its melting point is 221 to 222 °C.

Q: Which melting point does the source give for COCCCCN1C(=O)N(c2ccc(C#N)c(C(F)(F)F)c2)C(=O)C1(C)C here?
A: Its melting point is 80 to 81 °C.

Q: With CCc1cc(Cl)c2cccc(OC)c2n1 as the compound, how does the melting point read?
A: Its melting point is 80 to 81 °C.

Q: With FC(F)(F)c1ccc(-c2cc(Nc3ccc4ccc(Cl)nc4c3)ncn2)cc1 as the compound, how does the melting point read?
A: The melting point was 233 °C.

Q: For O=C(O)c1ccc2c(CCCCN3CC=C(c4ccccc4)CC3)c[nH]c2c1, which melting point is on record?
A: The melting point was 268 °C.

Q: Which melting point does the source give for CC1(C)CS(=O)(=O)c2ccccc2C1c1cncnc1S(C)(=O)=O (stereo not drawn) here?
A: Its melting point is 202 to 208 °C.

Q: Which melting point does the source give for CC(C)(O)CCCCc1ccc(CCc2ccc(O)c(O)c2)cc1 here?
A: The melting point was 124 to 126 °C.

Q: For Cc1cc(Br)cnc1CCCCNc1ncc(Cc2ccc(CO)nc2)c(=O)[nH]1, which melting point is on record?
A: Its melting point is 61 to 70 °C.

Q: For C[C@@H](CCC(=O)N[C@@H](Cc1ccccc1)C(=O)CSCc1ccco1)CNC(=O)COc1ccccc1, which melting point is on record?
A: Its melting point is 91 to 95 °C.

Q: With CC(C)(C)C(=O)C=Cc1cnc2ccccc2c1 as the compound, how does the melting point read?
A: The melting point was 146 to 148 °C.

Q: For O=C(O)c1ccc(-c2cc(-c3ccc(C(F)(F)F)cc3)on2)cc1, which melting point is on record?
A: Its melting point is > 300 °C.

Q: For COc1cc(N)c(OC)c(OC)c1OC, which melting point is on record?
A: The melting point was 99 to 100 °C.

Q: Which melting point does the source give for CC(C)(C)OC(=O)NN=C(c1ccccc1)c1ccncc1 here?
A: Its melting point is 134 °C.

Q: Which melting point does the source give for Cc1ccc(-c2ccc(C)c(CN3CCN(C(c4ccccc4)c4ccccc4)CC3)c2)cc1 here?
A: The melting point was 177 °C.

Q: Which melting point does the source give for CCOC(=O)c1sc(-c2cc3cccc(NS(=O)(=O)c4cccs4)c3[nH]2)nc1C here?
A: Its melting point is 226 to 228 °C.

Q: With CC(C(=O)O)c1ccc2nc3c(Cl)cc(Cl)cn3c(=O)c2c1 (stereo not drawn) as the compound, how does the melting point read?
A: Its melting point is 241 °C.

Q: For Cc1cc(C)c(S(=O)(=O)NCC(O)(Cn2cncn2)c2ccc(Cl)cc2Cl)c(C)c1 (stereo not drawn), which melting point is on record?
A: The melting point was 171 to 172 °C.

Q: Which melting point does the source give for CCCOc1ccccc1-c1nc2nc(NC(C)=O)ncc2c(=O)[nH]1 here?
A: Its melting point is 273 to 274 °C.

Q: For COc1ccc(C(NCCC(c2ccccc2)c2ccccc2)c2cccc(Nc3c(N)c(=O)c3=O)c2)cc1 (stereo not drawn), which melting point is on record?
A: Its melting point is 132 to 134 °C.

Q: Which melting point does the source give for CC(=O)Nc1cc(Cc2ccc3c(C(=O)Nc4ccc(CN5CCN(C)CC5)c(C(F)(F)F)c4)cccc3c2)ncn1 here?
A: The melting point was 202 to 204 °C.

Q: With Nc1ccc(Cc2ccccn2)cc1[N+](=O)[O-] as the compound, how does the melting point read?
A: Its melting point is 128 to 132 °C.

Q: Which melting point does the source give for CCCCC[C@@H](CNC(=O)Nc1c(OCC)ncnc1N(C)C)c1cccc2c1OCO2 here?
A: The melting point was 62 to 64 °C.

Q: With CS(=O)(=O)CCOCCn1cnc2c(N)nc3ccccc3c21 as the compound, how does the melting point read?
A: The melting point was 145 to 148 °C.

Q: Which melting point does the source give for COc1ccc(Nc2nc(NC(CO)CO)nc(N(C)C3CCN(C)CC3)n2)cc1Cl here?
A: Its melting point is 84 °C.
